The values below are quoted from earlier work in US8653094B2, “Solid forms of (S)-ethyl 2-amino-3-(4-(2-amino-6-((R)-1-(4-chloro-2-(3-methyl-1H-pyrazol-1-yl)phenyl)-2,2,2-trifluoroethoxy)-pyrimidin-4-yl)phenyl)propanoate and methods of their use” (Lexicon Pharmaceuticals, Inc., priority 2007, dated 2014).

One data set has as its system tryptophan hydroxylase. To be noted: statement in words; see U.S. patent application No. 60/874,596.
The subject of data set [1] is peripheral serotonin levels. The settings on record: when administered to animals; see U.S. patent application No. 60/874,596.

Turning to `CCOC(=O)[C@@H](N)Cc1ccc(-c2cc(O[C@H](c3ccc(Cl)cc3-n3ccc(C)n3)C(F)(F)F)nc(N)n2)cc1` [(S)-ethyl 2-amino-3-(4-(2-amino-6-((R)-1-(4-chloro-2-(3-methyl-1H-pyrazol-1-yl)phenyl)-2,2,2-trifluoroethoxy)pyrimidin-4-yl)phenyl)propanoate], the tryptophan hydroxylase inhibition entry in the data set with tryptophan hydroxylase is “inhibitor of tryptophan hydroxylase”. Moreover, the “effect on peripheral serotonin levels” value in data set [1] is listed as “decreases peripheral serotonin levels”.
